{
  "source": "patent US20220056037A1",
  "about": "(SPV THERAPEUTICS INC., priority 2018, published 2022)",
  "key": {"[1]": {"experiment": "Nonclinical pharmacokinetic study, IV and oral, in rats", "procedure": "Nonclinical pharmacokinetic (PK) parameters of lead CDK4/6/9 inhibitors were determined in an intravenous (IV) and oral study (p.o.) conducted in rats. Lead compounds were each administered as a single oral dose at 100 mg/kg or by IV bolus via the caudal vein at the dose of 30 mg/kg. Blood samples were collected at 0.25, 0.5, 1, 2, 4, 8, 12, and 24 hours post i.v. administration, and at 1, 2, 4, 8, 24 and 48 hours post oral administration. Plasma was processed for drug concentration analysis using a validated LCMS/MS method, and PK parameters were calculated by using WinNonlin."}, "all cell lines tested": {"system": "all cell lines tested", "experiment": "2D cell proliferation assay (CellTiter-Blue), geometric mean over the panel", "type": "cell-based", "settings": "geometric mean of all individual IC50 values of Table 4; read-out: Geomean abs. IC50 value", "description": "Viability of the cells was analyzed by using the CellTiter-Blue® Cell Viability Assay (Promega), and was performed according to manufacturer's instructions. Briefly, cells were harvested from exponential phase cultures (Chapter 6.6), counted and plated in 96-well flat-bottom microtiter plates at a cell density of 4,000-60,000 cells/well in a volume of 140 μl per well. After a 24 hours recovery period, 10 μL cell culture medium (six control wells/plate) or culture medium with test compound were added (Chapter 6.2). The compounds were applied at five concentrations in full-log increments up to 100 μM in duplicate. Cultures were incubated at 37° C. and 5% CO2 in a humidified atmosphere for another three days. After three days of treatment, 20 μl/well CellTiter-Blue® reagent was added. Following incubation with CellTiter-Blue® reagent for up to four hours, fluorescence (FU) was measured by using the Enspire Multimode Plate Reader (excitation λ=570 nm, emission λ=600 nm). […]\n(§1) If an IC50 or IC70 value could not be determined within the examined dose range (because a compound was either too active or lacked activity), the lowest or highest concentration studied was used for calculation of the geometric mean value.\nThe overall potency of a compound was determined by the geometric mean IC50/IC70 values of all individual IC50/IC70 values. […]"}, "OVXF SK-OV-3": {"system": "OVXF SK-OV-3", "experiment": "2D cell proliferation assay (CellTiter-Blue)", "type": "cell-based", "settings": "Homo sapiens, 72 h; cell line OVXF SK-OV-3; three days of treatment; read-out: IC (abs. IC50)", "description": "(§2) Viability of the cells was analyzed by using the CellTiter-Blue® Cell Viability Assay (Promega), and was performed according to manufacturer's instructions. Briefly, cells were harvested from exponential phase cultures (Chapter 6.6), counted and plated in 96-well flat-bottom microtiter plates at a cell density of 4,000-60,000 cells/well in a volume of 140 μl per well. After a 24 hours recovery period, 10 μL cell culture medium (six control wells/plate) or culture medium with test compound were added (Chapter 6.2). The compounds were applied at five concentrations in full-log increments up to 100 μM in duplicate. Cultures were incubated at 37° C. and 5% CO2 in a humidified atmosphere for another three days. After three days of treatment, 20 μl/well CellTiter-Blue® reagent was added. Following incubation with CellTiter-Blue® reagent for up to four hours, fluorescence (FU) was measured by using the Enspire Multimode Plate Reader (excitation λ=570 nm, emission λ=600 nm). For calculations, the mean values of duplicate/sextuplicate (untreated control) data were used.\n(§3) Drug effects were expressed in terms of the percentage of the fluorescence signal, obtained by comparison of the mean signal in the treated wells with the mean signal of the untreated controls (expressed by the test-versus-control value, T/C-value [%]):\n(§4) IC values are reported as relative IC50 values and absolute IC50 and IC70 values. […] The absolute IC70 value gives the concentration of the test compound that achieves T/C=30%. The relative IC50 value is the concentration of test compound that gives a response half way between the top and bottom plateau of the sigmoidal concentration-response curve (inflection point of the curve). Calculation was done by 4parameter non-linear curve fit (Oncotest Data Warehouse Software).\nas §1\n(§5) The overall potency of a compound was determined by the geometric mean IC50/IC70 values of all individual IC50/IC70 values. In the heatmap representation of IC50 and IC70 values, the distribution of the IC50 or IC70 values obtained for a test compound in the individual cell lines is given in relation to the geometric mean […] or IC70 value, obtained over all PDX models tested. The individual IC values range from 1/32-fold geometric mean IC (corresponding to very potent compound activity or high tumor sensitivity) to 32-fold geometric mean IC (corresponding to lack of compound activity or tumor resistance). The heatmap presentation, therefore, represents an antiproliferative “fingerprint” profile of a test compound."}, "CXF HCT-15": {"system": "CXF HCT-15", "experiment": "2D cell proliferation assay (CellTiter-Blue)", "type": "cell-based", "settings": "Homo sapiens, 72 h; cell line CXF HCT-15; three days of treatment; read-out: IC (abs. IC50)", "description": "as §2, §3, §4, §1, §5"}, "LYXFNH Daudi": {"system": "LYXFNH Daudi", "experiment": "2D cell proliferation assay (CellTiter-Blue)", "type": "cell-based", "settings": "Homo sapiens, 72 h; cell line LYXFNH Daudi; three days of treatment; read-out: IC (abs. IC50)", "description": "as §2, §3, §4, §1, §5"}, "PRXF LNCaP": {"system": "PRXF LNCaP", "experiment": "2D cell proliferation assay (CellTiter-Blue)", "type": "cell-based", "settings": "Homo sapiens, 72 h; cell line PRXF LNCaP; three days of treatment; read-out: IC (abs. IC50)", "description": "as §2, §3, §4, §1, §5"}, "LXFL NCI-H460": {"system": "LXFL NCI-H460", "experiment": "2D cell proliferation assay (CellTiter-Blue)", "type": "cell-based", "settings": "Homo sapiens, 72 h; cell line LXFL NCI-H460; three days of treatment; read-out: IC (abs. IC50)", "description": "as §2, §3, §4, §1, §5"}, "MAXFTN MDA-MB-453": {"system": "MAXFTN MDA-MB-453", "experiment": "2D cell proliferation assay (CellTiter-Blue)", "type": "cell-based", "settings": "Homo sapiens, 72 h; cell line MAXFTN MDA-MB-453; three days of treatment; read-out: IC (abs. IC50)", "description": "as §2, §3, §4, §1, §5"}, "LIXFH HEP-3B": {"system": "LIXFH HEP-3B", "experiment": "2D cell proliferation assay (CellTiter-Blue)", "type": "cell-based", "settings": "Homo sapiens, Hep3B, 72 h; cell line LIXFH HEP-3B; three days of treatment; read-out: IC (abs. IC50)", "description": "as §2, §3, §4, §1, §5"}, "LXFA A549": {"system": "LXFA A549", "experiment": "2D cell proliferation assay (CellTiter-Blue)", "type": "cell-based", "settings": "Homo sapiens, 72 h; cell line LXFA A549; three days of treatment; read-out: IC (abs. IC50)", "description": "as §2, §3, §4, §1, §5"}, "MAXFTN MDA-MB-231 (ER −)": {"system": "MAXFTN MDA-MB-231 (ER −)", "experiment": "2D cell proliferation assay (CellTiter-Blue)", "type": "cell-based", "settings": "Homo sapiens, 72 h; cell line MAXFTN MDA-MB-231 (ER −); three days of treatment; read-out: IC (abs. IC50)", "description": "as §2, §3, §4, §1, §5"}, "MAXFTN MDA-MB-468 (ER −)": {"system": "MAXFTN MDA-MB-468 (ER −)", "experiment": "2D cell proliferation assay (CellTiter-Blue)", "type": "cell-based", "settings": "Homo sapiens, 72 h; cell line MAXFTN MDA-MB-468 (ER −); three days of treatment; read-out: IC (abs. IC50)", "description": "as §2, §3, §4, §1, §5"}, "PRXF 22Rv1": {"system": "PRXF 22Rv1", "experiment": "2D cell proliferation assay (CellTiter-Blue)", "type": "cell-based", "settings": "Homo sapiens, 72 h; cell line PRXF 22Rv1; three days of treatment; read-out: IC (abs. IC50)", "description": "as §2, §3, §4, §1, §5"}, "[2]": {"settings": "rats, oral administration, 100 mg/kg, N = 3"}},
  "data": [
    {"compound": "CN1CCN(c2ccc(Nc3ncc4cc(C(=O)N(C)C)n(C56CC(C5)C6)c4n3)cc2)CC1", "note": "[SPV113]", "values": [
      {"measurement": "Cmax", "setting": "[1]; rat, plasma, iv, 30 mg/kg", "result": 6830, "unit": "ng/mL"},
      {"measurement": "clearance", "setting": "[1]; rat, plasma, iv, 30 mg/kg", "result": 18.7, "unit": "mL/min/kg"},
      {"measurement": "half-life", "setting": "[1]; rat, plasma, iv, 30 mg/kg", "result": 5.73, "unit": "h"},
      {"measurement": "Cmax", "setting": "[1]; rat, plasma, po, 100 mg/kg", "result": 2520, "unit": "ng/mL"},
      {"measurement": "MRT", "setting": "[1]; rat, plasma, po, 100 mg/kg", "result": 25.5, "unit": "h"},
      {"measurement": "BIOAVAILABILITY F", "setting": "[1]; rats, oral 100 mg/kg vs IV bolus 30 mg/kg", "result": 33.3, "unit": "%"},
      {"measurement": "AUC", "setting": "[1]; [2]", "result": 33798, "unit": "ng·h/mL"},
      {"measurement": "T1/2", "setting": "[1]; [2]", "result": 6.0, "unit": "h"},
      {"measurement": "IC50", "setting": "all cell lines tested", "result": 391, "unit": "nM"},
      {"measurement": "IC50", "setting": "OVXF SK-OV-3", "result": 3150, "unit": "nM"},
      {"measurement": "IC50", "setting": "CXF HCT-15", "result": 202, "unit": "nM"},
      {"measurement": "IC50", "setting": "LYXFNH Daudi", "result": "≤ 10", "unit": "nM"},
      {"measurement": "IC50", "setting": "PRXF LNCaP", "result": 116, "unit": "nM"},
      {"measurement": "IC50", "setting": "LXFL NCI-H460", "result": 291, "unit": "nM"},
      {"measurement": "IC50", "setting": "MAXFTN MDA-MB-453", "result": 177, "unit": "nM"},
      {"measurement": "IC50", "setting": "LIXFH HEP-3B", "result": 367, "unit": "nM"},
      {"measurement": "IC50", "setting": "LXFA A549", "result": 1230, "unit": "nM"},
      {"measurement": "IC50", "setting": "MAXFTN MDA-MB-231 (ER −)", "result": 340, "unit": "nM"},
      {"measurement": "IC50", "setting": "MAXFTN MDA-MB-468 (ER −)", "result": 290, "unit": "nM"},
      {"measurement": "IC50", "setting": "PRXF 22Rv1", "result": "≤ 10", "unit": "nM"}
    ]}
  ]
}
